Reference: patent publication US20020065219A1, “Water soluble thiazolyl peptide derivatives” (priority 2000, published 2002)
Converted amounts (≈) assume the structure as drawn.

Tests used:
[1] = test system: Enterococcus faecalis A20688; assay: MIC, broth micro dilution assay (NCCLS); assay type: cell-based; settings: Enterococcus faecalis, A20688, 18 h, read-out: MIC (μg/mL) against Enterococcus faecalis A20688
[2] = test system: Staphylococcus aureus A15090; assay: animal or person; assay type: in vivo, female ICR mice; settings: A15090, in Mus musculus, iv, 1 h, read-out: PD50 (dose which protects 50% of mice from mortality)
[3] = test system: Streptococcus pneumoniae A28272; assay: MIC, broth micro dilution assay (NCCLS); assay type: cell-based; settings: Streptococcus pneumoniae, A28272, 18 h, read-out: MIC (μg/mL) against Streptococcus pneumoniae A28272
[4] = test system: Staphylococcus aureus A15090; assay: MIC, broth micro dilution assay (NCCLS); assay type: cell-based; settings: Staphylococcus aureus, A15090, 18 h, read-out: MIC (μg/mL) against Staphylococcus aureus A15090

SMILES | MIC [1] [µg/mL] | ED50 [2] [mg/kg] | MIC [3] [µg/mL] | MIC [4] [µg/mL]
CCN(CC)CCN(C)CC(NC(=O)c1csc(-c2nc3c(cc2O)-c2nc(cs2)C(=O)NC(C(C)O)C(=O)N/C(=C(\C)OC)c2nc(cs2)C(=O)NC2c4nc(cs4)C(=O)NC(COC(=O)c4c5c6c(cccc6n4O)COC(=O)C(O[C@H]4C[C@](C)(O)[C@H](N(C)C)[C@H](C)O4)C2OC5)c2nc-3cs2)n1)C(N)=O (stereo partly shown) [Example 6] | 2 (≈ 1.28 µM) | 0.19 to 7.3 | 0.03 (≈ 0.0191 µM) | 0.125 (≈ 0.0797 µM)
CO/C(C)=C1/NC(=O)C(C(C)O)NC(=O)c2csc(n2)-c2cc(O)c(-c3nc(C(=O)NC(CN(C)CCO)C(N)=O)cs3)nc2-c2csc(n2)C2COC(=O)c3c4c5c(cccc5n3O)COC(=O)C(O[C@H]3C[C@](C)(O)[C@H](N(C)C)[C@H](C)O3)C(OC4)C(NC(=O)c3csc1n3)c1nc(cs1)C(=O)N2 (stereo partly shown) [Example 2] | 0.06 (≈ 0.0397 µM) | 0.19 to 7.3 | 0.015 (≈ 0.00992 µM) | 0.015 (≈ 0.00992 µM)
CO/C(C)=C1/NC(=O)C(C(C)O)NC(=O)c2csc(n2)-c2cc(O)c(-c3nc(C(=O)NC(CN(C)C)C(N)=O)cs3)nc2-c2csc(n2)C2COC(=O)c3c4c5c(cccc5n3O)COC(=O)C(O[C@H]3C[C@](C)(O)[C@H](N(C)C)[C@H](C)O3)C(OC4)C(NC(=O)c3csc1n3)c1nc(cs1)C(=O)N2 (stereo partly shown) [Example 7] | 0.125 (≈ 0.0843 µM) | 0.19 to 7.3 | 0.03 (≈ 0.0202 µM) | 0.06 (≈ 0.0405 µM)
CO/C(C)=C1/NC(=O)C(C(C)O)NC(=O)c2csc(n2)-c2cc(O)c(-c3nc(C(=O)NC(CN(C)CCN(C)C)C(N)=O)cs3)nc2-c2csc(n2)C2COC(=O)c3c4c5c(cccc5n3O)COC(=O)C(O[C@H]3C[C@](C)(O)[C@H](N(C)C)[C@H](C)O3)C(OC4)C(NC(=O)c3csc1n3)c1nc(cs1)C(=O)N2 (stereo partly shown) [Example 9] | 0.5 (≈ 0.325 µM) | 0.19 to 7.3 | 0.007 (≈ 0.00455 µM) | 0.06 (≈ 0.039 µM)
